Some test systems named below: 786-0; A549; CAKI-1; COLO 205; EKVX; HCT-15; HT-29; LOX IMVI; MDA-N; MOLT-4; NCI-H460; NCI/ADR-RES; OVCAR-3; OVCAR-5; RXF 393; SF-268; SNB-19; SNB-75; UACC-62; UO-31.
What all share (experiment): NCI tumour cell line growth inhibition, 48 h

Data on ten compounds can be found in ChEMBL document CHEMBL1201862, “PubChem BioAssay data set” (2004).

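Step 1: Grow cells in 96-well plates. Step 2: Expose to compound for 48 hours at 5 concentrations. Step 3: Interpolate endpoints linearly; if unreached, use highest concentration. GI50 marks 50% less growth.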 Active and inactive are the calls of the source. No stated cut-off is given here; in the data, active = GI50 up to about 1.1 µM and inactive = higher.

With `Nc1ccc(C(=O)CC(N)C(=O)O)cc1O` (stereo not given), the GI50 with 786-0 is > 100 µM (inactive); with A549, > 100 µM (inactive); in the assay on CAKI-1 it was > 100 µM (inactive); in the assay with COLO 205, > 100 µM (inactive); with EKVX, > 100 µM (inactive); with HCT-15 it was greater than 100 µM. Further, the GI50 in the assay with HT-29, in the assay on LOX IMVI, with MDA-N, in the assay on MOLT-4, in the assay with NCI-H460 and in the assay with NCI/ADR-RES was > 100 µM (inactive) throughout. Further, the GI50 in the assay with OVCAR-3, in the assay on OVCAR-5, in the assay with RXF 393, in the assay with SF-268, in the assay on SNB-19 and in the assay on SNB-75 was > 100 µM (inactive) in each case. In addition, the GI50 with UACC-62 and with UO-31 was > 100 µM (inactive) in each case.
In the case of `O=C1Nc2cccc(Cl)c2/C1=C\c1c(-c2ccccc2)nc2n1CCS2`, the GI50 in the assay on 786-0 was 18 µM (inactive); in the assay with A549, 18.6 µM (inactive); with CAKI-1 it was 22.9 µM (inactive); in the assay with COLO 205 it was 18.8 µM (inactive); in the assay on EKVX, 26.1 µM (inactive); with HCT-15, 18.9 µM. Besides, the GI50 in the assay on HT-29 is 20.3 µM (inactive); in the assay with LOX IMVI it was 16 µM (inactive); in the assay with MDA-N it was 18.5 µM (inactive); in the assay with MOLT-4 it was 10.6 µM (inactive); with NCI-H460, 17.8 µM (inactive); in the assay with NCI/ADR-RES it was 16.3 µM (inactive). Also, the GI50 in the assay with OVCAR-3 is 19.4 µM (inactive); in the assay on OVCAR-5 it was 22.8 µM (inactive); in the assay with RXF 393, 19.6 µM (inactive); in the assay with SF-268, 20.3 µM (inactive); in the assay on SNB-19, 26.6 µM (inactive); in the assay on SNB-75 it was 24 µM (inactive). The GI50 with UACC-62 was 17.9 µM (inactive); in the assay on UO-31, 19.1 µM (inactive).
As to `Cc1ccc(S(=O)(=O)Oc2coc(CO)cc2=O)cc1`, the GI50 with 786-0 is 6.38 µM (inactive); in the assay on A549, 14.8 µM (inactive); with CAKI-1, 4.42 µM (inactive); in the assay with COLO 205, 14.3 µM (inactive); with EKVX it was 15.3 µM (inactive); in the assay on HCT-15 it was 13.3 µM. Moreover, the GI50 in the assay with HT-29 was 12.4 µM (inactive); in the assay with LOX IMVI it was 3.05 µM (inactive); in the assay on MDA-N, 8.02 µM (inactive); with MOLT-4, 13.4 µM (inactive); with NCI-H460 it was 14.4 µM (inactive); with NCI/ADR-RES, 22.8 µM (inactive). Further, the GI50 was 15.3 µM (inactive) in the assay on OVCAR-3; 17.8 µM (inactive) with OVCAR-5; 13.5 µM (inactive) in the assay with RXF 393; 9.42 µM (inactive) in the assay with SF-268; 14.6 µM (inactive) with SNB-19; 14.2 µM (inactive) in the assay on SNB-75. Besides, the values for the GI50 with UACC-62 and in the assay with UO-31 were 11.9 µM (inactive) and 14.1 µM (inactive), respectively.
Consider `CC(CCC=O)CCOCc1ccccc1` (stereo not given), for which the GI50 in the assay on 786-0 is > 100 µM (inactive); in the assay on A549, > 87.5 µM (inactive); in the assay on CAKI-1, 36.8 µM (inactive); in the assay with COLO 205 it was > 100 µM (inactive); in the assay with EKVX it was > 100 µM (inactive); in the assay with HCT-15, greater than 100 µM. Further, the GI50 in the assay on HT-29 is > 100 µM (inactive); in the assay with LOX IMVI it was 49.8 µM (inactive); with MDA-N, > 100 µM (inactive); in the assay on MOLT-4, > 40.7 µM (inactive); in the assay with NCI-H460, > 100 µM (inactive); in the assay with NCI/ADR-RES, > 100 µM (inactive). The GI50 in the assay on OVCAR-3 was > 88.5 µM (inactive); in the assay on OVCAR-5, > 89.7 µM (inactive); with RXF 393 it was > 100 µM (inactive); with SF-268 it was > 100 µM (inactive); in the assay with SNB-19, > 100 µM (inactive); in the assay with SNB-75 it was > 100 µM (inactive). Further, the GI50 with UACC-62 and in the assay on UO-31 was > 100 µM (inactive) each time.
Take `O=CNc1ccccc1OCCOc1ccccc1NC=O`: the GI50 is > 100 µM (inactive) with 786-0; > 100 µM (inactive) in the assay with A549; > 100 µM (inactive) in the assay with CAKI-1; > 100 µM (inactive) in the assay with COLO 205; > 100 µM (inactive) in the assay with EKVX; greater than 100 µM in the assay on HCT-15. Also, the GI50 in the assay on HT-29, in the assay with LOX IMVI, in the assay on MDA-N, with MOLT-4, with NCI-H460 and with NCI/ADR-RES was > 100 µM (inactive) in each case. The GI50 in the assay on OVCAR-3, with OVCAR-5, in the assay with RXF 393, in the assay with SF-268, in the assay with SNB-19 and in the assay on SNB-75 was > 100 µM (inactive) in each case. The GI50 with UACC-62 and in the assay with UO-31 was > 100 µM (inactive) throughout.
Consider `CC1=NN(C(=O)CC(=O)Nc2cccc(Cl)c2)C(=O)C1/N=N\c1ccc(S(=O)(=O)c2ccc(/N=N/C3C(=O)N(C(=O)CC(=O)Nc4cccc(Cl)c4)N=C3C)cc2)cc1` (stereo not given), for which the GI50 is > 100 µM (inactive) with 786-0; > 100 µM (inactive) with A549; > 100 µM (inactive) in the assay with CAKI-1; > 100 µM (inactive) in the assay on COLO 205; > 100 µM (inactive) in the assay on EKVX; greater than 100 µM in the assay on HCT-15. The GI50 in the assay with HT-29, with LOX IMVI, in the assay with MDA-N, with MOLT-4, with NCI-H460 and in the assay with NCI/ADR-RES was > 100 µM (inactive) in each case. The GI50 in the assay with OVCAR-3, in the assay with OVCAR-5, in the assay with RXF 393, with SF-268, with SNB-19 and with SNB-75 was > 100 µM (inactive) throughout. The GI50 with UACC-62 and in the assay with UO-31 was > 100 µM (inactive) each time.
For the compound `CCOC(=O)c1cnc2oc(/C=N/N3CC(CN4CCOCC4)OC3=O)cc2c1O` (stereo not given), the GI50 was > 100 µM (inactive) in the assay on 786-0; > 100 µM (inactive) in the assay with A549; > 100 µM (inactive) in the assay on CAKI-1; > 100 µM (inactive) with COLO 205; > 100 µM (inactive) in the assay with EKVX; greater than 100 µM with HCT-15. The GI50 with HT-29, in the assay with LOX IMVI, with MDA-N, in the assay with MOLT-4, in the assay with NCI-H460 and with NCI/ADR-RES was > 100 µM (inactive) each time. Besides, the GI50 in the assay with OVCAR-3, in the assay on OVCAR-5, with RXF 393, with SF-268, with SNB-19 and with SNB-75 was > 100 µM (inactive) each time. In addition, the GI50 with UACC-62 and in the assay on UO-31 was > 100 µM (inactive) each time.
For `OC(CC(c1ccccc1)c1ccc(Cl)cc1)c1ccc(Cl)cc1` (stereo not given), the GI50 in the assay on 786-0 is 34.1 µM (inactive); in the assay with A549, 37.8 µM (inactive); in the assay with CAKI-1 it was 27.8 µM (inactive); in the assay on COLO 205 it was 18.5 µM (inactive); in the assay with EKVX, 30.5 µM (inactive); with HCT-15, 33.4 µM. Further, the GI50 with HT-29 was 35.6 µM (inactive); with LOX IMVI, 27.9 µM (inactive); in the assay with MDA-N it was 29 µM (inactive); in the assay with MOLT-4, 34.2 µM (inactive); in the assay with NCI-H460, 30.1 µM (inactive); with NCI/ADR-RES, 33.5 µM (inactive). Moreover, the GI50 in the assay on OVCAR-3 was 33.6 µM (inactive); with OVCAR-5 it was 24.3 µM (inactive); in the assay on RXF 393, 24.8 µM (inactive); with SF-268 it was 37.1 µM (inactive); in the assay with SNB-19, 45.2 µM (inactive); in the assay with SNB-75, 29.4 µM (inactive). The GI50 was 30.3 µM (inactive) with UACC-62 and 33.3 µM (inactive) with UO-31.
In the case of `N#Cc1nc(CCC(C(=O)O)N2C(=O)c3ccccc3C2=O)oc1N` (stereo not given), the GI50 with 786-0 is > 100 µM (inactive); in the assay on A549 it was 41.7 µM (inactive); in the assay with CAKI-1 it was > 100 µM (inactive); in the assay with COLO 205 it was > 100 µM (inactive); with EKVX it was > 100 µM (inactive); in the assay on HCT-15, greater than 100 µM. Moreover, the GI50 was > 100 µM (inactive) with HT-29; > 10 µM (inactive) with LOX IMVI; > 100 µM (inactive) in the assay with MDA-N; > 100 µM (inactive) in the assay on MOLT-4; > 100 µM (inactive) with NCI-H460; > 100 µM (inactive) with NCI/ADR-RES. For the same compound, the GI50 in the assay on OVCAR-3, in the assay on OVCAR-5, in the assay with RXF 393, in the assay with SF-268, in the assay with SNB-19 and with SNB-75 was > 100 µM (inactive) throughout. The GI50 in the assay with UACC-62 and with UO-31 was > 100 µM (inactive) throughout.
For the compound `O=C(O)CCO/N=C1/C(=C2/C(=O)Nc3ccccc32)Nc2ccccc21`, the GI50 was 21.5 µM (inactive) in the assay on 786-0; 22.5 µM (inactive) with A549; 4.97 µM (inactive) with CAKI-1; 18.2 µM (inactive) with COLO 205; 11.2 µM (inactive) in the assay with EKVX; 6.58 µM with HCT-15. Also, the GI50 in the assay with HT-29 is 25 µM (inactive); with LOX IMVI, 12.4 µM (inactive); with MDA-N, 28.8 µM (inactive); in the assay on MOLT-4, 17.1 µM (inactive); with NCI-H460 it was 17.6 µM (inactive); in the assay on NCI/ADR-RES it was 42.2 µM (inactive). The GI50 with OVCAR-3 is 11.7 µM (inactive); in the assay on OVCAR-5 it was 40.9 µM (inactive); in the assay on RXF 393, 3.61 µM (inactive); in the assay on SF-268, 26.1 µM (inactive); in the assay with SNB-19 it was 40.5 µM (inactive); with SNB-75, 13.8 µM (inactive). The GI50 is 14.7 µM (inactive) in the assay with UACC-62 and 12 µM (inactive) in the assay with UO-31.
